Experimental data reported in US12097199B2, “Administration of SUMO-activating enzyme inhibitor and anti-CD20 antibodies” (Takeda Pharmaceutical Company Limited, priority 2018, dated 2024).

Assays:
[1] = tested on: OCI-Ly10 human diffuse large B-cell lymphoma xenograft; test: Study 2: OCI-Ly10 xenograft model, in vivo tumor efficacy; set-up: species or system SCID mice; details: for TGI %: Day 21
Method: OCI-Ly10 Study 2: OCI-Ly 10 is a human diffuse large B-cell lymphoma cell-line derived xenograft. 8 week old female SCID mice (Beijing HFK Bioscience Co., Ltd.) were inoculated subcutaneously in the right flank (cell suspension) with 4×10^6 OCI-Ly 10 cells. When the mean tumor volume reached approximately 200 mm^3, the animals were randomized into treatment and control groups (n=8/group). Tumor growth inhibition and body weight change were calculated on Day 21 of treatment.
Final doses received were 10 mg/kg or 5 mg/kg, respectively.
(§1) Tumors were measured twice weekly using vernier calipers. Tumor volumes were calculated using standard procedures V=W^2×L/2, where V=volume, W=width, and L=length for the tumor xenograft. […] Tumor size and body weight were measured twice a week for the duration of the study. Mice were euthanized when the average tumor volume of a treatment or control group reached approximately 1000 mm^3 or when an individual tumor exceeded the humane end-point for size.
(§2) These values were compared across treatment groups to assess whether the differences in the trends over time were statistically significant. To compare pairs of treatment groups, the following mixed-effects linear regression model was fit to the data using the maximum likelihood method: Yijk−Yi0k=Yi0k+treati+dayi+dayj^2+(treat*day)ij+(treat*day^2)ij+eijk (1) where Yijk is the log10 tumor value at the j^th time point of the k^th animal in the i^th treatment, Yi0k is the day 0 (baseline) log10 tumor value in the k^th animal in the i^th treatment, day, was the median-centered time point and (along with dayj^2) was treated as a continuous variable, and eijk is the residual error. A spatial power law covariance matrix was used to account for the repeated measurements on the same animal over time. Interaction terms as well as dayj^2 terms were removed if they were not statistically significant.
(§3) The predicted differences in the log tumor values (Yijk−Yi0k, which can be interpreted as log10 (fold change from day 0)) were taken from the above models to calculate mean AUC values for each treatment group. A dAUC value was then calculated as: […]
(§4) For synergy analyses, the observed differences in the log tumor values were used to calculate AUC values for each animal. […] The AUC for the control, or vehicle, group was calculated using the predicted values from the pairwise models described above. We defined a measure of synergy as follows:
(§5) The effect was classified into four different categories. It was considered synergistic if the synergy score was less than 0 and additive if the synergy score wasn't statistically different from 0.
(§6) In the OCI-Ly 10 diffuse large B-cell lymphoma xenograft model, mice were inoculated, randomized on Day 0 (30 days post inoculation), and treatments began on Day 1 for all groups. […] One group served as the vehicle-treated group (Group 1) receiving IV treatment with the vehicle for I-263a (20% HPβCD) on a QW schedule.

[2] = tested on: OCI-Ly10 human diffuse large B-cell lymphoma xenograft; test: Study 1: OCI-Ly10 xenograft model, in vivo tumor efficacy; set-up: species or system SCID mice; details: for TGI %: Day 21; for dAUC: unit assumed
Method: OCI-Ly 10 Study 1: OCI-Ly 10 is a human diffuse large B-cell lymphoma cell-line derived xenograft. 6 week old female SCID mice (Beijing HFK Bioscience Co., Ltd.) were inoculated subcutaneously in the right flank (cell suspension) with 4×10^6 OCI-Ly10 cells. When the mean tumor volume reached approximately 200 mm^3, the animals were randomized into treatment and control groups (n=7/group). Tumor growth inhibition and body weight change were calculated on Day 21 of treatment.
(§7) Final doses received were 25 mg/kg or 15 mg/kg, respectively.
as §1, §2, §3, §4, §5
(§8) One group served as the vehicle-treated group (Group 1) receiving IV treatment with the vehicle for I-263a (20% HPβCD) on a QW schedule.

[3] = tested on: TMD8 human diffuse large B-cell lymphoma xenograft; test: Study 4: TMD8 xenograft model, in vivo tumor efficacy; set-up: species or system SCID mice; details: for TGI %: Day 18
Method: TMD8 Study 4: TMD8 is a human diffuse large B-cell lymphoma cell-line derived xenograft. 8 week old female SCID mice (Beijing HFK Bioscience Co., Ltd) were inoculated subcutaneously in the right flank (cell suspension with 4×10^6 cells). When the mean tumor volume reached approximately 190 mm^3, the animals were randomized into treatment groups and control groups (n=8/group). Tumor growth inhibition and body weight change were calculated on Day 18 of treatment. Tumor volumes below the humane end-point for size were continually monitored following the end of treatment (post-treatment period) for an additional week.
as §7, §1, §2, §3, §4, §5
as §6, with “TMD8” for “OCI-Ly 10”, “(10” for “(30”

[4] = tested on: SUMO-activating enzyme and SUMOylation; test: Inhibition of SAE and SUMOylation in cultured tumor cell lines; format: cell-based; details: cultured mouse and human tumor cell lines
From the text: (§9) SAE inhibitors, as disclosed herein, are described, for example, in US 2016/0009744 and U.S. Pat. No. 9,695,154. They may be prepared by methods known to one skilled in the art and/or according to the methods described in US 2016/0009744 and U.S. Pat. No. 9,695,154, which is hereby incorporated by reference in its entirety. Central to the mechanism of action of useful SAE inhibitors, such as Compound I-263a, in combinations and methods of the present disclosure is production of type 1 IFNs and induction of an innate immune response with activation of both natural killer (NK) cells and macrophages.

[5] = tested on: PHTX-166L human patient-derived primary B-cell lymphoma xenograft; test: Study 6: PHTX-166L primary xenograft model, in vivo tumor efficacy; set-up: species or system mice
Method: Small tumor pieces measuring approximately 2 mm×2 mm were implanted subcutaneousy on the right flank via trocar injection.
as §1, §2, §3, §4, §5, §8

[6] = tested on: WSU-DLCL2 human diffuse large B-cell lymphoma xenograft; test: Study 3: WSU-DLCL2 xenograft model, in vivo tumor efficacy; set-up: species or system SCID mice
Method: WSU-DLCL2 Study 3: WSU-DLCL2 is a human diffuse large B-cell lymphoma cell-line derived xenograft. 7 week old female SCID mice (Charles River Laboratories) were inoculated subcutaneously in the right flank (cell suspension with 4.0×10^6 cells). When the mean tumor volume reached approximately 200 mm^3, the animals were randomized into treatment groups and control groups (n=8/group). Tumor growth inhibition and body weight change were calculated on Day 21 of treatment. Tumor volumes below the humane end-point for size were continually monitored following the end of treatment (post-treatment period) for an additional week.
as §1, §2, §3, §4, §5
as §6, with “WSU-DLCL2” for “OCI-Ly 10”, “(8” for “(30”

[7] = tested on: PHTX-166L human patient-derived B-cell lymphoma primary xenograft; test: Study 5: PHTX-166L primary xenograft model, in vivo tumor efficacy; set-up: species or system mice; details: for TGI %: Day 11
Method: PHTX-166L Study 5: PHTX-166L is a human patient-derived B-cell lymphoma primary xenograft. Small tumor pieces measuring approximately 2 mm×2 mm were implanted subcutaneousy on the right flank via trocar injection. When the mean tumor volume reached approximately 160 mm^3, the animals were randomized into treatment groups and control groups (n=7/group). Tumor growth inhibition and body weight change were calculated on Day 11 of treatment. Tumor volumes below the humane end-point for size were continually monitored following the end of treatment (post-treatment period) until Day 146 post treatment initiation.
as §1, §2, §3, §4, §5
as §6, with “PHTX-166L patient-derived primary” for “OCI-Ly 10 diffuse large”, “(24” for “(30”

SUMO-activating enzyme = SUMO-activating enzyme (Homo sapiens, UniProt Q9UBT2); test: Biochemical assays of SUMO-activating enzyme inhibition
Sequence of SUMO-activating enzyme (Q9UBT2 whole entry): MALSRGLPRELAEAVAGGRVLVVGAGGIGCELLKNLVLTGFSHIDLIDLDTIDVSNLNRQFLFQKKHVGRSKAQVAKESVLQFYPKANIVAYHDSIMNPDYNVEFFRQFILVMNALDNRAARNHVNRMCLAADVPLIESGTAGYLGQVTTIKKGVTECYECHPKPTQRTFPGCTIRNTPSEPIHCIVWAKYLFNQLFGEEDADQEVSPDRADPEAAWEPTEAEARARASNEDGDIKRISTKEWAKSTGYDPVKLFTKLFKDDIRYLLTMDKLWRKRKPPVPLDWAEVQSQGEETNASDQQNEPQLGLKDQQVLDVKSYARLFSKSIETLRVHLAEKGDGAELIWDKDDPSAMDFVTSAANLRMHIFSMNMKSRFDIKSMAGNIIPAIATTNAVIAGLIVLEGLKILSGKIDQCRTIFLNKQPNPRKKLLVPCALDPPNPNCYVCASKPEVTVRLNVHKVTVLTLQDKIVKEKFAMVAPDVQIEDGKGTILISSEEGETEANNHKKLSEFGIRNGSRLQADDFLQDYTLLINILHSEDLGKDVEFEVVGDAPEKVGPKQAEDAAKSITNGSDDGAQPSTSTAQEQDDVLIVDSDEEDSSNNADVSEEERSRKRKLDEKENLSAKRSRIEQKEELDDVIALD
Sequence of SUMO-activating enzyme (Q9UBE0 whole entry partner): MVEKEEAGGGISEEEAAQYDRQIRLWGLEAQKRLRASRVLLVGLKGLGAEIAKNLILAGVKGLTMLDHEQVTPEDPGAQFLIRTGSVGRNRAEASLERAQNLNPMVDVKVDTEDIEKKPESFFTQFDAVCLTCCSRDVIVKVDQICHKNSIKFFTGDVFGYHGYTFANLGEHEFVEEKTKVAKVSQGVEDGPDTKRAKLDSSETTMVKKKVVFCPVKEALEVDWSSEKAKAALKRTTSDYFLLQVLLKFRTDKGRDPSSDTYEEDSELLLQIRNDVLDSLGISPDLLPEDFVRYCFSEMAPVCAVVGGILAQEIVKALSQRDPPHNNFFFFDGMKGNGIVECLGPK
Sequence of SUMO-activating enzyme (P63165 1-97 partner limits assumed): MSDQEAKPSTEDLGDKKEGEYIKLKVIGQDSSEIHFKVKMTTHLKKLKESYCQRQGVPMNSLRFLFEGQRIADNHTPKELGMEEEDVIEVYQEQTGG
From the text: as §9

[8] = single-agent I-263a (25 and 15 mg/kg)
[9] = Group B: I-263a 5.0 mg/kg IV QW
[10] = Group C: I-263a 12.5 mg/kg IV QW

## Cc1sc(C(=O)c2cncnc2N[C@@H]2C[C@H](COS(N)(=O)=O)[C@@H](O)C2)cc1[C@@H]1NCCc2ccc(Cl)cc21 [Compound I-263a, [(1R,2S,4R)-4-{[5-({4-[(1R)-7-chloro-1,2,3,4-tetrahydroisoquinolin-1-yl]-5-methyl-2-thienyl}carbonyl)pyrimidin-4-yl]amino}-2-hydroxycyclopentyl]methyl sulfamate]
[1]; Group B: I-263a 10 mg/kg IV QW
  Days to 1000 mm^3 MTV: 32.1 days
  Tumor volume on Day 21 (±SEM): 706.9 ± 51.3 mm^3
  dAUC: 25.6
  TGI %: 41.3%
[1]; Group C: I-263a 5 mg/kg IV QW
  Days to 1000 mm^3 MTV: 28.7 days
  Tumor volume on Day 21 (±SEM): 759.3 ± 33.2 mm^3
  dAUC: 26.8
  TGI %: 37%
[1]; single-agent I-263a (10 and 5 mg/kg)
  Day by which all mice were euthanized (group reached 1000 mm^3 or humane end-point for size): ≤ 35 days
[2]; Group B: I-263a 25 mg/kg IV QW
  Days to 1000 mm^3 MTV: 39 days
  Tumor volume on Day 21 (±SEM): 409.7 ± 19.2 mm^3
  TGI %: 31.3%
  dAUC: 23.6%
[2]; Group C: I-263a 15 mg/kg IV QW
  Days to 1000 mm^3 MTV: 37.6 days
  Tumor volume on Day 21 (±SEM): 443.7 ± 12.3 mm^3
  TGI %: 25.6%
  dAUC: 21.4%
[2]; [8]
  Day by which all mice were euthanized (group reached 1000 mm^3 or humane end-point for size): ≤ 120 days
[3]; Group B: I-263a 25 mg/kg IV QW
  Days to 1000 mm^3 MTV: 14.1 days
  Tumor volume on Day 18 (±SEM): 1297.4 ± 120.2 mm^3
  dAUC: 13.6
  TGI %: 27.8%
[3]; Group C: I-263a 15 mg/kg IV QW
  Days to 1000 mm^3 MTV: 12.8 days
  Tumor volume on Day 18 (±SEM): 1604.1 ± 144.7 mm^3
  dAUC: 10.1
  TGI %: 10.7%
[3]; [8]
  Day by which all mice were euthanized (group reached 1000 mm^3 or humane end-point for size): ≤ 120 days
[4]
  Inhibition of SUMO-activating enzyme and SUMOylation in cells: Selective and potent inhibition
[5]; [9]
  Days to 1000 mm^3 MTV: 9.1 days
  dAUC: 34.3
[5]; Group B: I-263a 5.0 mg/kg IV QW (Days 1 and 8)
  Tumor volume on Day 9 (±SEM): 992.2 ± 115.2 mm^3
[5]; Group B: I-263a 5.0 mg/kg IV QW, Day 9
  TGI %: 51.4%
[6]; Group B: I-263a 5 mg/kg IV QW
  Days to 1000 mm^3 MTV: 17.2 days
  Tumor volume on Day 21 (±SEM): 1340.3 ± 188.1 mm^3
  dAUC: 28.1
[6]; Group B: I-263a 5 mg/kg IV QW, Day 21
  TGI %: 37.6%
[6]; single-agent I-263a 5 mg/kg
  Day by which all mice were euthanized (group reached 1000 mm^3 or humane end-point for size): ≤ 24 days
[7]; Group B: I-263a 25 mg/kg IV QW
  Days to 1000 mm^3 MTV: >18 days
  dAUC: 45.0
  TGI %: 72%
[7]; Group B: I-263a 25 mg/kg IV QW (Days 1 and 8)
  Tumor volume on Day 11 (±SEM): 540.2 ± 58.5 mm^3
[7]; [10]
  Days to 1000 mm^3 MTV: 13.2 days
  dAUC: 35.4
  TGI %: 60.6%
[7]; Group C: I-263a 12.5 mg/kg IV QW (Days 1 and 8)
  Tumor volume on Day 11 (±SEM): 758.2 ± 104.7 mm^3
SUMO-activating enzyme; mechanism-based inhibitor forming a covalent adduct with SUMO
  Inhibition of SUMO-activating enzyme activity: potently inhibits enzyme activity
SUMO-activating enzyme; over ubiquitin-activating enzyme, Nedd8-activating enzyme, and autophagy related 7 enzyme
  Selectivity for SUMO-activating enzyme: Strong selectivity
